Experimental findings from patent US9713615B2, “Tetrahydroisoquinolin-2-yl-(quinazolin-4-yl)methanone compounds” (Rexahn Pharmaceuticals, Inc., priority 2013, dated 2017) are described below.

As usually defined, the IC50 is the concentration that inhibits the measured activity by half.

For one test, the system named is SK-MEL-28 (melanoma). Description: SRB growth inhibition assay, SK-MEL-28. Type of test: cell-based. Particulars: Homo sapiens, 96 hours incubation, read-out: Inhibition of cell growth (IC50, μM) SK-MEL-28. An excerpt:
(§1) Cancer cells used in this study to determine the effect of tetrahydroisoquinolin-2-yl-(quinazolin-4-yl)methanone compounds were obtained from the following sources: Human OVCAR-3 (ovary), SK-MEL-28 (melanoma), MDA-MB-231 (breast), HeLa (cervix), PC3 (prostate), HepG2 (liver), A549 (lung), Caki-1 (kidney), HCT116 (colon) and PANC-1 (pancreas) from the American Type Culture Collection (ATCC) (Manassas, Va.); U251 (brain) from Riken (Japan); MKN-45 (stomach) from DSMZ (Germany). All cell lines except MDA-MB-231, HCT116, Caki-1 and PANC-1 were grown in RPMI1640 medium (Invitrogen, Carlsbad, Calif.) supplemented with 10% fetal bovine serum (“FBS”), 1 mM sodium pyruvate, 10 mM HEPES and 100 U/ml penicillin and 100 μg/ml streptomycin (“P/S”). MDA-MB-231, HCT116, Caki-1 and PANC-1 cells were maintained in Dulbecco's modified Eagle's medium (“DMEM”, Invitrogen) supplemented with 10% FBS, P/S, 10 mM HEPES and 2 mM L-glutamine. All cells were incubated at 37° C. under humidified 5% CO2.
(§2) The growth inhibition of the tetrahydroisoquinolin-2-yl-(quinazolin-4-yl)methanone compounds against a variety of human tumor cells was evaluated to study the relative importance of particular substituent groups on the compounds. The tetrahydroisoquinolin-2-yl-(quinazolin-4-yl)methanone compounds, prepared as described above, were tested with DMSO as a control.
(§3) The growth inhibition assay of representative tetrahydroisoquinolin-2-yl-(quinazolin-4-yl)methanone derivatives against human tumor cell lines was performed using the Sulforhodamine B (“SRB”) method (Skehan et al., J. National Cancer Institute, 82: 1107-1112 (1990)). Briefly, exponentially growing tumor cells were seeded into a 96-well plate at a density of 2-3×10^3 cells/well and treated with tetrahydroisoquinolin-2-yl-(quinazolin-4-yl)methanone compounds the next day. Triplicate wells were used for each treatment. The cells were incubated with the various compounds for 96 hours at 37° C. in a humidified 5% CO2 atmosphere. After 96-hour incubation, cells were fixed with 10% trichloroacetic acid (“TCA”), incubated for 1 hour at 4° C., and washed 3 times with tap water. Subsequently, cells were stained with 0.4% sulforhodamine B in 1% acetic acid for 30 minutes, washed 4 times with 1% acetic acid, and air-dried again After 5 minutes agitation in 10 mM Tris solution, the absorbance of each well was measured at 530 nm using Benchmark Plus Microplate reader (Bio-Rad Laboratories, Hercules, Calif.).
(§4) To translate the OD530 values into the number of live cells in each well, the OD530 values were compared to those on standard OD530-versus-cell number curves generated for each cell line. The percent survival was calculated using the formula: % Survival=live cell number [test]/live cell number [control]×100
(§5) The IC50 values were calculated by non-linear regression analysis.

For a further test, the system named is A549 (lung). Description: SRB growth inhibition assay, A549. The class given is cell-based. Particulars: Homo sapiens, 96 hours incubation, read-out: Inhibition of cell growth (IC50, μM) A549.
Source text: as §1, §2, §3, §4, §5

The test system of test [1] is MDA-MB-231 human breast adenocarcinoma cells. Description: Xenograft study in nude mice. The class given is in vivo. The settings on record: 50 mg/kg intraperitoneal three times per week from day 15; subcutaneous MDA-MB-231 xenograft, female NCr nu/nu mice. On the procedure:
Tumor growth inhibition by tetrahydroisoquinolin-2-yl-(quinazolin-4-yl)methanone compounds in an animal model was carried out by performing an […] xenograft study of nude mice was conducted with Compound 1. Suitable human cancer cell lines are those that have been tested previously for inhibition of cancer cell growth. The antitumor efficacy of Compound 1 was evaluated against subcutaneously injected tumor xenografts in nude mice. Tumor volume was measured after treatment with Compound 1.
A suspension of MDA-MB-231 cells (5×10^6 cells in […]) was injected subcutaneously into the right flank of CR female NCr nu/nu mice on day 0. A sufficient number of mice were injected with MDA-MB-231 cell suspension (0.2 ml/mouse) so that tumors in a volume range as narrow as possible were selected for the trial on the day of treatment initiation. Animals with tumors in the proper size range (100˜150 mm^3) were assigned to various treatment groups. Compound 1 was dissolved in the mixture of 15% dimethylacetamide and 30% Solutol® HS15 in water. Solvent alone served as control. […] To quantify tumor growth, three perpendicular diameters of the tumors were measured with calipers every 3-4 days, and the body weight of the mice was monitored for toxicity. The tumor volume was calculated using the formula: tumor volume (mm^3)=(width)×(length)×(height)×π/6.

For the next test, the system named is PC3 (prostate). Description: SRB growth inhibition assay, PC3. The class given is cell-based. Particulars: Homo sapiens, 96 hours incubation, read-out: Inhibition of cell growth (IC50, μM) PC-3.
Source text: as §1, §2, §3, §4, §5

A further test concerns U251 (brain). Description: SRB growth inhibition assay, U251. Type of test: cell-based. Particulars: Homo sapiens, U-251, 96 hours incubation, read-out: Inhibition of cell growth (IC50, μM) U251.
Source text: as §1, §2, §3, §4, §5

In another test the test system is MKN-45 (stomach). Briefly: SRB growth inhibition assay, MKN-45. Particulars: Homo sapiens, 96 hours incubation, read-out: Inhibition of cell growth (IC50, μM) MKN-45. Type of test: cell-based.
Source text: as §1, §2, §3, §4, §5

Another test concerns HeLa (cervix). Briefly: SRB growth inhibition assay, HeLa. Particulars: Homo sapiens, 96 hours incubation, read-out: Inhibition of cell growth (IC50, μM) HeLa. Type of test: cell-based.
Source text: as §1, §2, §3, §4, §5

Another test deals with PANC-1 (pancreas). Briefly: SRB growth inhibition assay, PANC-1. The class given is cell-based, Human. The settings on record: Homo sapiens, PANC-1, 96 hours incubation, read-out: Inhibition of cell growth (IC50, μM) Panc-1.
Source text: as §1, §2, §3, §4, §5
(§6) The compounds were screened against at […] including PANC-1, MDA-MB-231, HCT116 and Caki-1, at approximately 1 μM concentration. The inhibition of cell growth (IC50, μM) of some tetrahydroisoquinolin-2-yl-(quinazolin-4-yl)methanone compounds are shown in Table 2.

The next test deals with OVCAR-3 (ovary). Description: SRB growth inhibition assay, OVCAR-3. The class given is cell-based. Particulars: Homo sapiens, 96 hours incubation, read-out: Inhibition of cell growth (IC50, μM) Ovcar3.
Source text: as §1, §2, §3, §4, §5

In another test the test system is Caki-1 (kidney). Briefly: SRB growth inhibition assay, Caki-1. The class given is cell-based, Human. The settings on record: Homo sapiens, CAKI-1, 96 hours incubation, read-out: Inhibition of cell growth (IC50, μM) Caki-1.
Source text: as §1, §2, §3, §4, §5, §6

In the next test the test system is HCT116 (colon). Description: SRB growth inhibition assay, HCT116. The class given is cell-based, Human. The settings on record: Homo sapiens, HCT-116, 96 hours incubation, read-out: Inhibition of cell growth (IC50, μM) HCT116.
Source text: as §1, §2, §3, §4, §5, §6

The next test concerns HepG2 (liver). Description: SRB growth inhibition assay, HepG2. The class given is cell-based. The settings on record: Homo sapiens, 96 hours incubation, read-out: Inhibition of cell growth (IC50, μM) HepG2.
Source text: as §1, §2, §3, §4, §5

The test system of the next test is MDA-MB-231 (breast). Description: SRB growth inhibition assay, MDA-MB-231. The class given is cell-based, Human. Particulars: Homo sapiens, MDA-MB-231, 96 hours incubation, read-out: Inhibition of cell growth (IC50, μM) MDA-MB-231.
Source text: as §1, §2, §3, §4, §5, §6

Regarding `COc1ccc2c(c1O)CCN(C(=O)c1nc(-c3ccc(F)cc3)nc3ccccc13)C2` [Compound 1, 2-[[2-(4-fluorophenyl)quinazolin-4-yl]carbonyl]-5-hydroxy-6-methoxy-1,2,3,4-tetrahydroisoquinoline], the IC50 in the test on SK-MEL-28 (melanoma) is 0.063 µM; with A549 (lung) it was 0.14 µM; in the test on PC3 (prostate), 0.076 µM; with U251 (brain), 0.067 µM; in the test with MKN-45 (stomach) it was 0.058 µM; in the test with HeLa (cervix), 0.063 µM. Also, the IC50 in the test with PANC-1 (pancreas) is 0.057 µM; in the test with OVCAR-3 (ovary), 0.06 µM; in the test on Caki-1 (kidney), 0.056 µM; in the test with HCT116 (colon), 0.069 µM; in the test on HepG2 (liver), 0.12 µM; in the test with MDA-MB-231 (breast), 0.06 µM. Besides, the “inhibition of tumor growth (tumor volume)” value in [1] is given as “inhibition of tumor growth”.
Turning to `COc1ccc(-c2nc(C(=O)N3CCc4c(ccc(OC)c4O)C3)c3ccccc3n2)cc1` [Compound 22, 2-[[2-(4-methoxylphenyl)quinazolin-4-yl]carbonyl]-5-hydroxy-6-methoxy-1,2,3,4-tetrahydroisoquinoline], the half-maximal inhibitory concentration (IC50) in the test on SK-MEL-28 (melanoma) is 0.072 µM; with A549 (lung) it was 0.15 µM; in the test with PC3 (prostate) it was 0.076 µM; in the test with U251 (brain), 0.069 µM; in the test with MKN-45 (stomach) it was 0.055 µM; in the test with HeLa (cervix), 0.064 µM. The IC50 with PANC-1 (pancreas) was found to be 0.056 µM; in the test with OVCAR-3 (ovary), 0.08 µM; with Caki-1 (kidney), 0.057 µM; with HCT116 (colon), 0.086 µM; in the test with HepG2 (liver), 0.19 µM; with MDA-MB-231 (breast), 0.052 µM.
Consider `COc1ccc2c(c1O)CCN(C(=O)c1nc(-c3cccc(F)c3)nc3ccccc13)C2` [Compound 42, 2-[[2-(3-fluorophenyl)quinazolin-4-yl]carbonyl]-5-hydroxy-6-methoxy-1,2,3,4-tetrahydroisoquinoline], for which the 50% inhibitory concentration (IC50) worked out at 0.098 µM in the test on SK-MEL-28 (melanoma); 0.21 µM in the test on A549 (lung); 0.15 µM with PC3 (prostate); 0.11 µM with U251 (brain); 0.051 µM with MKN-45 (stomach); 0.12 µM with HeLa (cervix). The IC50 came to 0.12 µM in the test with PANC-1 (pancreas); 0.15 µM with OVCAR-3 (ovary); 0.082 µM in the test with Caki-1 (kidney); 0.14 µM with HCT116 (colon); 0.2 µM in the test on HepG2 (liver); 0.12 µM in the test on MDA-MB-231 (breast).
Consider `COc1ccc2c(c1O)CCN(C(=O)c1nc(-c3ccncn3)nc3ccccc13)C2` [Compound 70, 2-[[2-(4-pyrimidinyl)quinazolin-4-yl]carbonyl]-5-hydroxy-6-methoxy-1,2,3,4-tetrahydroisoquinoline], for which the 50% inhibitory concentration (IC50) in the test on SK-MEL-28 (melanoma) worked out at 0.059 µM; in the test on A549 (lung), 0.11 µM; in the test on PC3 (prostate) it was 0.049 µM; with U251 (brain), 0.064 µM; with MKN-45 (stomach), 0.058 µM; in the test on HeLa (cervix) it was 0.074 µM. Besides, the concentration for half-maximal inhibition (IC50) with PANC-1 (pancreas) was found to be 0.054 µM; with OVCAR-3 (ovary) it was 0.068 µM; in the test on Caki-1 (kidney), 0.055 µM; in the test with HCT116 (colon), 0.068 µM; with HepG2 (liver) it was 0.096 µM; in the test on MDA-MB-231 (breast) it was 0.045 µM.
Take `COc1ccc2c(c1O)CCN(C(=O)c1nc(-c3cccnc3)nc3ccccc13)C2` [Compound 84, 2-[[2-(3-pyridinyl)quinazolin-4-yl]carbonyl]-5-hydroxy-6-methoxy-1,2,3,4-tetrahydroisoquinoline]: the IC50 was determined as 0.13 µM in the test with SK-MEL-28 (melanoma); 0.24 µM in the test on A549 (lung); 0.15 µM in the test with PC3 (prostate); 0.11 µM with U251 (brain); 0.071 µM in the test with MKN-45 (stomach); 0.15 µM with HeLa (cervix). The IC50 with PANC-1 (pancreas) amounted to 0.15 µM; in the test with OVCAR-3 (ovary) it was 0.14 µM; in the test on Caki-1 (kidney), 0.093 µM; in the test on HCT116 (colon), 0.15 µM; in the test on HepG2 (liver) it was 0.2 µM; in the test on MDA-MB-231 (breast), 0.13 µM.
